The text below walks through data of patent US20050272677A1, “Delivery of a substance to a pre-determined site” (priority 2002, published 2005).

Like-named read-outs stand apart in the source and are kept apart here.

Series [1] can be described thus: Gelation experiment (gel formation in solvents). In kind it is physicochemical. Here is the method: To obtain a gel or to thicken the solvent, the compound is mixed with the required solvent or a mixture of solvents in an amount between 0.01 and 50 wt. %, based on the weight of the composition. Typically, the dissolution of the components will be performed by heating (in some cases it may be helpful to homogenize the components, e.g., vortex) them together at temperatures of 20° C. to 200° C., preferably 50° C. to 150° C. Cooling these hot solutions to a preferred temperature in the range of −20° C. to 100° C., preferably 4° C. to 100° C. affords the gel or thickened solvent. […] In an alternative embodiment, the gelling agent is first dissolved in a polar or apolar solvent followed by the addition of another solvent or solvent mixture, thereby causing gelation to take place.
It will be understood that the use of the present gelling agents or thickeners to prepare a gel or to thicken a composition is also encompassed by the invention. As is well-known, gelling behavior of compounds or compositions is highly unpredictable. […] Preferably, the gelling phenomenon is thermoreversible.
In a typical gelation experiment, a carefully weighed amount of the dithienylcyclopentene derivative under investigation and 1 ml of the solvent are placed in a test tube, which is sealed and then heated until the compound is dissolved. The solution is allowed to cool to room temperature. […] The gelation process could be followed by UV-vis and CD spectroscopy as depicted in FIG. 58. At low concentrations (0.35 mM), compound D is dissolved in toluene. […] Increasing the concentration to 1.8 mM causes gelation of the solvent, which is accompanied by a change of the UV-visible spectrum, together with the appearance of a strong CD signal at 323 nm (FIG. 58, panels (a) and (c)). Similar changes in the UV-vis and CD spectrum are observed upon gelation of the 1.8 mM solution of D in toluene by cooling to a temperature below the sol-gel phase transition (from here on, referred to as gel(o)). From a plot of the increase of the CD signal versus the temperature, the sol-gel phase transition temperature of gel(o) was determined to be 29° C. for a 1.8 mM solution of D in toluene.

Series [2] is described as follows: pH as stimulus for gel-to-sol and sol-to-gel transitions. In kind it is physicochemical. The source says: Addition of base to a gel of 1 led to a decrease in melting temperature of the gel. Above pH>4.06, gelation was no longer observed (reversible process; see FIG. 50).
Compound 15 can gelate water and undergoes a sol-to-gel transition around pH=4.93 at room temperature (for a 0.5 wt % gel).

A short description of series [3]: In vivo delivery of luciferase DNA complexed with Sunfish amphiphiles. Further details: species or system mouse. Conditions: for gene expression (Luciferase) after intravenous injection of complexed DNA: 24 hours, efficiency order SF-46>SF-36>SF-6>SF-30>SF-63. The method, then:
Sunfish (SF) amphiphiles were tested and compared to DOTAP, a commercially available amphiphile (Avanti Polar Lipids). The used plasmid DNA codes for Luciferase, which is expressed upon transfection. Luciferase activity represents the efficiency of transfection. Liposomes were prepared by drying the Sunfish amphiphiles or DOTAP in glass tubes under a nitrogen flow followed by being under vacuum for one hour. The lipid film was resuspended in 20% sucrose by mixing and warming up for five minutes to 60° C. in a water bath. The liposomal suspension was then sonicated for three minutes. For lipoplexes formation, plasmid DNA (30 μg/mouse) diluted in 20% sucrose was added to the liposomes (450 nmol/mouse) under mixing. The lipoplexes were allowed to rest at room temperature for […] and were intravenously injected (150 μl) in male BALB/c mice. Organs (lungs, heart, liver, spleen and kidneys) were collected 24 hours after injection for analysis. Luciferase activity was measured in homogenates of the different organs and related to a standard curve obtained with purified recombinant Luciferase.

Series [4] in a line: Gelation in the presence of surfactants and polymeric micelles. In kind it is physicochemical. More on the design: key: G = gel; C = crystalline; G^a: ^a= not stable.
Assay in series [5]: as above
In kind it is physicochemical. More on the design: key: g = gel; i = insoluble; p = precipitate; sol = soluble.

The subject of series [6] is pB104 strain (MscL null E. coli). Kind of series: Growth assay of MscL mutants on agar plates with or without IPTG. Further details: key: ++++: growth equal to cells expressing wild-type MscL; growth is indicated by ++++ to −; growth is indicated by ++++ to −; growth is indicated by ++++ to −; −: an absence of growth. Conditions: pB104 with Lac-inducible plasmid. The class given is cell-based. Here is the method:
The constructs of the MscL-6His mutants were constructed using standard molecular biology techniques. The mutants were tested in the pB104 strain (MscL null E. coli) by a growth assay on agar plates with or without IPTG (K. Yoshimura et al., 1999, Biophys. J. 77:1960-1972).
The first phenotype (++) grows like the single G22S mutant.

With `COC(=O)[C@H](CCSC)NC(=O)[C@H]1C[C@@H](C(=O)N[C@@H](CCSC)C(=O)OC)C[C@@H](C(=O)N[C@@H](CCSC)C(=O)OC)C1` [9a, CHexAmMetOMe], the solvents gelated result in series [1] is “both organic solvents and water”. For the same molecule, the “effect of sufficient amounts of base on the gel” value (“effect” below) in series [2] is given as “causes dissolution of these gels”.
With `CCCCCCCC/C=C\CCCCCCCC[n+]1ccc(CCCCCCCCCCCCC)cc1.[Cl-]` [SF-30, 1-(9′-cis-octadecenyl)-4-tridecyl-pyridinium Chloride], the “gene expression (Luciferase) after intravenous injection of complexed DNA” value (“gene expression (Luciferase)” below) in series [3] is recorded as “resulted in gene expression in the lungs”.
Regarding `O=C(NCCOCCO)[C@H](Cc1ccccc1)NC(=O)[C@H]1C[C@@H](C(=O)N[C@@H](Cc2ccccc2)C(=O)NCCOCCO)C[C@@H](C(=O)N[C@@H](Cc2ccccc2)C(=O)NCCOCCO)C1` [gelator 4, CHexAmPheNHCH2CH2OCH2CH2OH], the solvents gelated result in series [1] is “water and lower alcohols”. For the same molecule, the Gelation properties result in series [4] (Nonionic (Lactose der.) < CMC), in series [4] (Nonionic (Lactose der.) > CMC), in series [4] (anionic (SDS) < CMC), in series [4] (anionic (SDS) > CMC), in series [4] (cationic (CTAB) < CMC) and in series [4] (cationic (CTAB) > CMC) was “G” each time. Further, the Gelation properties entry is recorded as “p” in series [5] (Pluronic P 105, 5 mg · ml^−1) and “p” in series [5] (Pluronic P 105, 100 mg · ml^−1).
Turning to `CCCCCCCC/C=C\CCCCCCCCCc1cc[n+](CCCCCCCCCCCCCCCCCC)cc1` [SF-46, 1-stearyl-4-(10′-cis-nonadecenyl)-pyridinium Chloride], the “Luciferase activity in the lungs compared to DOTAP” value in series [3] (24 hours after i.v. injection) is recorded as “five times higher”. The “gene expression (Luciferase)” value in series [3] is “resulted in gene expression in the lungs”.
For `CCCCCCCCCCCCCCCC[n+]1ccc(CCCCCCCCCCCCC)cc1.[Cl-]` [SF-36, 1-hexadecyl-4-tridecyl-pyridinium Chloride], in series [3], the “gene expression (Luciferase)” value is “resulted in gene expression in the lungs”.
On to CHexAmAspOMe [gelator 8], for which, in series [2], the “effect” value was “causes dissolution of these gels”.
CHexAmPheGlyOH [gelator 3]: the “effect” value in series [2] is recorded as “causes dissolution of these gels”.
Take `CSCC[C@H](NC(=O)[C@H]1C[C@@H](C(=O)N[C@@H](CCSC)C(=O)NCCc2c[nH]cn2)C[C@@H](C(=O)N[C@@H](CCSC)C(=O)NCCc2c[nH]cn2)C1)C(=O)NCCc1c[nH]cn1` [gelator 15, CHexAmMetHista]: the solvents gelated result is “water” in series [1] (listed as 15); “water and lower alcohols” in series [1] (listed as CHex-Am-Met-Hista). Besides, in series [2], the “pH of sol-to-gel transition” value is recorded as about 4.93.
As for `CSCC[C@H](NC(=O)[C@H]1C[C@@H](C(=O)N[C@@H](CCSC)C(=O)O)C[C@@H](C(=O)N[C@@H](CCSC)C(=O)O)C1)C(=O)O` [gelator 1, CHexAmMetOH], the solvents gelated result in series [1] is “water and lower alcohols”. The “pH above which gelation was no longer observed” value in series [2] (addition of base, reversible) amounted to 4.06. Besides, the Gelation properties result is given as “C” in series [4] (CTAB < CMC, * pH reversible gelation); “C” in series [4] (CTAB < CMC, ** pH reversible then thermoreversible gelation); “C” in series [4] (CTAB > CMC, * pH reversible gelation); “C” in series [4] (CTAB > CMC, ** pH reversible then thermoreversible gelation); “G” in series [4] (Lactose der. < CMC, * pH reversible gelation); “G” in series [4] (Lactose der. < CMC, ** pH reversible then thermoreversible gelation). Further, the Gelation properties entry is listed as “G” in series [4] (Lactose der. > CMC, * pH reversible gelation); “G” in series [4] (Lactose der. > CMC, ** pH reversible then thermoreversible gelation); “G” in series [4] (Nonionic (Lactose der.) < CMC); “G” in series [4] (Nonionic (Lactose der.) > CMC); “G” in series [4] (SDS < CMC, * pH reversible gelation); “G” in series [4] (SDS < CMC, ** pH reversible then thermoreversible gelation). The Gelation properties result in series [4] (SDS > CMC, * pH reversible gelation) is on record as “G”; in series [4] (SDS > CMC, ** pH reversible then thermoreversible gelation), “G”; in series [4] (anionic (SDS) < CMC) it was “G”; in series [4] (anionic (SDS) > CMC), “G”; in series [4] (cationic (CTAB) < CMC), “C”; in series [4] (cationic (CTAB) > CMC), “C”. The Gelation properties entry in series [5] (Pluronic P 105, 5 mg · ml^−1) is “p”; in series [5] (Pluronic P 105, 5 mg · ml^−1, * pH reversible gelation) it was “g”; in series [5] (Pluronic P 105, 5 mg · ml^−1, ** pH reversible then thermoreversible gelation), “p”; in series [5] (Pluronic P 105, 100 mg · ml^−1) it was “p”; in series [5] (Pluronic P 105, 100 mg · ml^−1, * pH reversible gelation), “g”; in series [5] (Pluronic P 105, 100 mg · ml^−1, ** pH reversible then thermoreversible gelation), “p”.
Turning to `CCCCCCCC/C=C\CCCCCCCCCc1cc[n+](CCCCCCCC/C=C\CCCCCCCC)cc1.[Cl-]` [SF-6, 1-(9′-cis-octadecenyl)-4-(10″-cis-nonadecenyl)pyridinium Chloride], in series [3], the “gene expression (Luciferase)” value was “resulted in gene expression in the lungs”.
In the case of CHexAmMetAmCH2Pyr [gelator 6], the solvents gelated entry in series [1] is on record as “water:alcohol mixtures (1:1)”. Further, the state result was “soluble” in series [1] (DMSO); “soluble” in series [1] (EtOH); “gel” in series [1] (H2O/EtOH (1:1), weight % 1.0, 0.5, 0.25); “gel” in series [1] (H2O/EtOH (2:1), weight % 0.16); “gel (turbid)” in series [1] (H2O/EtOH (4:1), weight % 1.0, 0.5); “gel” in series [1] (H2O/MeOH (1:1), weight % 0.5, 0.25). The state result is “gel (turbid)” in series [1] (H2O/MeOH (4:1), weight % 1.0, 0.5); “insoluble” in series [1] (H2O, weight % 0.05); “soluble” in series [1] (MeOH). Also, in series [2] (room temperature, 0.5 wt % in MeOH:H2O=1:1), the “pH of sol-to-gel transition” value is on record as about 4.47.

B1: R13H (protein, UniProt P0A742 1-136, looked up, variant R13H)
Large-conductance …: MSIIKEFREFAMHGNVVDLAVGVIIGAAFGKIVSSLVADIIMPPLGLLIGGIDFKQFAVTLRDAQGDIPAVVMHYGVFIQNVFDFLIVAFAIFMAIKLINKLNRKKEEPAAAPAPTKEEVLLTEIRDLLKEQNNRS
For B1, the “Growth on agar plates +IPTG” value in series [6] (with IPTG) was “+++”. Moreover, in series [6] (without IPTG), the “Growth on agar plates −IPTG” value is listed as “++++”.
